Results taken from patent US10301664B2, “Repurposing non-antimicrobial drugs and clinical molecules to treat bacterial infections” (Purdue Research Foundation, priority 2015, dated 2019).
Converted amounts (≈) assume the structure as drawn. Where two headings read alike, the source gives them in different places.

Tests used:
[1] = tested on: Vancomycin-resistant S. aureus (VRSA); test: MIC and MBC against vancomycin-resistant S. aureus clinical isolates (CLSI); format: cell-based
[2] = tested on: Methicillin resistant S. aureus (MRSA); test: MIC and MBC against methicillin resistant S. aureus clinical isolates (CLSI); format: cell-based; settings: Staphylococcus aureus
[3] = tested on: Methicillin-sensitive S. aureus (MSSA); test: MIC and MBC against methicillin-sensitive S. aureus isolates (CLSI); format: cell-based; settings: Staphylococcus aureus
[4] = tested on: Vancomycin-intermediate S. aureus (VISA); test: MIC and MBC against vancomycin-intermediate S. aureus isolates (CLSI); format: cell-based; settings: Staphylococcus aureus
S. epidermidis NRS 101 = test: MIC and MBC against S. epidermidis (CLSI); format: cell-based; settings: Staphylococcus epidermidis, NRS101
[5] = tested on: E. fecalis ATCC 51229 (VRE); test: MIC and MBC against E. fecalis VRE (CLSI); format: cell-based; settings: Enterococcus
Method: The NIH Clinical Collections 1 and 2 (http://www.nihclinicalcollection.com) containing 727 FDA approved drugs and small molecules previously used in human clinical trials with known safety profiles were screened against ESKAPE pathogens. The library was initially screened at a single concentration of 16 μM to identify “hit” non-antibacterial drugs. Once the antimicrobial activity of the drugs was confirmed, we determined their MICs and minimum bactericidal concentrations (MBCs) according to the Clinical and Laboratory Standards Institute (CLSI).

[6] = tested on: E. faecium ATCC 700221 (VRE); test: MIC and MBC against E. faecium VRE (CLSI), Table 1; format: cell-based; settings: Enterococcus faecium
[7] = tested on: clinical isolates of S. aureus; test: MIC90 over clinical isolates of S. aureus; format: cell-based; settings: Staphylococcus aureus, Table 1, read-out: MIC90 (MIC at which 90% of clinical isolates of S. aureus were inhibited)
MRSA USA300 [8] = test: Library hits: MIC/MBC against MRSA; format: cell-based, Staphylococcus aureus; settings: Staphylococcus aureus
[9] = tested on: vancomycin resistant E. faecium ATCC 700221 (VRE); test: Library hits: MIC/MBC against VRE; format: cell-based; settings: VRE
MRSA USA200 = format: in vivo, BALB/c mice; settings: oral, EB 30 mg/kg or FdUrd 25 mg/kg once daily for three days, monitored six days
Method: Animal procedures were approved by the Purdue University Animal Care and Use Committee (PACUC) (protocol no. 1311000988). Eight-week-old female BALB/c mice (Harlan Laboratories, Indianapolis, Ind.) were used for this study. Mice were rendered neutropenic by treatment with cyclophosphamide intraperitoneally (IP) 150 and 100 mg/kg at four days and one day before infection, respectively. Neutropenic mice were inoculated IP with 8×10^8 MRSA USA200. At one hour after infection, the mice were divided into five groups (n=10 per group), and two groups were treated orally with either EB 30 mg/kg or FdUrd 25 mg/kg. Two groups were treated IP with either EB 30 mg/kg or FdUrd 25 mg/kg. One group was used as a control with no treatment. Treatment was continued once daily for two more days (animals received three doses total). Mortality was monitored four times daily for six days, and the cumulative percent survival was determined. The data were subjected to statistical analysis using Kaplan-Meier survival curves. A log rank test was performed for 95% confidence intervals by GraphPad Prism 6.0 (GraphPad Software, La Jolla, Calif.).

MRSA USA300 [10] = test: Mouse model of MRSA systemic infection (lethal); format: in vivo, BALB/c mice; settings: oral 30 mg/kg once daily, three doses
Description: For MRSA systemic infection, neutropenic Female BALB/c mice were inoculated IP with 1×10^9 MRSA USA300.

O=c1c2ccccc2[se]n1-c1ccccc1 [Ebselen]
MIC ([1]; Staphylococcus aureus, VRSA): 0.125 µg/mL (≈ 0.456 µM)
MBC ([1]; Staphylococcus aureus, VRSA, VRSA1, read-out: MBC): 0.25 µg/mL (≈ 0.912 µM)
MIC ([1]; Staphylococcus aureus, VRSA, VRSA1, read-out: MIC): 0.25 µg/mL (≈ 0.912 µM)
MBC ([1]; Staphylococcus aureus, VRSA, VRSA2, read-out: MBC): 0.25 µg/mL (≈ 0.912 µM)
MIC ([1]; Staphylococcus aureus, VRSA, VRSA2, read-out: MIC): 0.25 µg/mL (≈ 0.912 µM)
MBC ([1]; Staphylococcus aureus, VRSA, VRSA3a, read-out: MBC): 0.25 µg/mL (≈ 0.912 µM)
MIC ([1]; Staphylococcus aureus, VRSA, VRSA3a, read-out: MIC): 0.25 µg/mL (≈ 0.912 µM)
MBC ([1]; Staphylococcus aureus, VRSA, VRSA3b, read-out: MBC): 1 µg/mL (≈ 3.65 µM)
MIC ([1]; Staphylococcus aureus, VRSA, VRSA3b, read-out: MIC): 0.25 µg/mL (≈ 0.912 µM)
MBC ([1]; Staphylococcus aureus, VRSA, VRSA4): 0.125 µg/mL (≈ 0.456 µM)
MBC ([1]; Staphylococcus aureus, VRSA, VRSA5, read-out: MBC): 0.25 µg/mL (≈ 0.912 µM)
MIC ([1]; Staphylococcus aureus, VRSA, VRSA5, read-out: MIC): 0.25 µg/mL (≈ 0.912 µM)
MBC ([1]; Staphylococcus aureus, VRSA, VRSA6, read-out: MBC): 0.5 µg/mL (≈ 1.82 µM)
MIC ([1]; Staphylococcus aureus, VRSA, VRSA6, read-out: MIC): 0.25 µg/mL (≈ 0.912 µM)
MBC ([1]; Staphylococcus aureus, VRSA, VRSA7, read-out: MBC): 0.5 µg/mL (≈ 1.82 µM)
MIC ([1]; Staphylococcus aureus, VRSA, VRSA7, read-out: MIC): 0.5 µg/mL (≈ 1.82 µM)
MBC ([1]; Staphylococcus aureus, VRSA, VRSA8): 0.125 µg/mL (≈ 0.456 µM)
MBC ([1]; Staphylococcus aureus, VRSA, VRSA9, read-out: MBC): 0.5 µg/mL (≈ 1.82 µM)
MIC ([1]; Staphylococcus aureus, VRSA, VRSA9, read-out: MIC): 0.25 µg/mL (≈ 0.912 µM)
MBC ([1]; Staphylococcus aureus, VRSA, VRSA10, read-out: MBC): 0.25 µg/mL (≈ 0.912 µM)
MIC ([1]; Staphylococcus aureus, VRSA, VRSA10, read-out: MIC): 0.25 µg/mL (≈ 0.912 µM)
MBC ([1]; Staphylococcus aureus, VRSA, VRSA11b, read-out: MBC): 0.25 µg/mL (≈ 0.912 µM)
MIC ([1]; Staphylococcus aureus, VRSA, VRSA11b, read-out: MIC): 0.25 µg/mL (≈ 0.912 µM)
MBC ([1]; Staphylococcus aureus, VRSA, VRSA12, read-out: MBC): 0.5 µg/mL (≈ 1.82 µM)
MIC ([1]; Staphylococcus aureus, VRSA, VRSA12, read-out: MIC): 0.25 µg/mL (≈ 0.912 µM)
MBC ([1]; Staphylococcus aureus, VRSA, VRSA13, read-out: MBC): 0.25 µg/mL (≈ 0.912 µM)
MIC ([1]; Staphylococcus aureus, VRSA, VRSA13, read-out: MIC): 0.25 µg/mL (≈ 0.912 µM)
MIC ([1]; VRSA8): 0.125/0.125 mg/L
MIC ([1]; VRSA11a): 0.125 µg/mL (≈ 0.456 µM)
MBC ([2]; MRSA / NRS 70, read-out: MBC): 0.25 µg/mL (≈ 0.912 µM)
MIC ([2]; MRSA / NRS 70, read-out: MIC): 0.25 µg/mL (≈ 0.912 µM)
MBC ([2]; MRSA / NRS 71, read-out: MBC): 0.25 µg/mL (≈ 0.912 µM)
MIC ([2]; MRSA / NRS 71, read-out: MIC): 0.25 µg/mL (≈ 0.912 µM)
MBC ([2]; MRSA / NRS 100, read-out: MBC): 0.5 µg/mL (≈ 1.82 µM)
MIC ([2]; MRSA / NRS 100, read-out: MIC): 0.25 µg/mL (≈ 0.912 µM)
MBC ([2]; MRSA / NRS 108, read-out: MBC): 0.25 µg/mL (≈ 0.912 µM)
MIC ([2]; MRSA / NRS 108, read-out: MIC): 0.25 µg/mL (≈ 0.912 µM)
MBC ([2]; MRSA / NRS 119): 0.25 µg/mL (≈ 0.912 µM)
MIC ([2]; MRSA / NRS 119): 0.125 µg/mL (≈ 0.456 µM)
MBC ([2]; MRSA / NRS 123, read-out: MBC): 0.5 µg/mL (≈ 1.82 µM)
MIC ([2]; MRSA / NRS 123, read-out: MIC): 0.25 µg/mL (≈ 0.912 µM)
MBC ([2]; MRSA / NRS 194, read-out: MBC): 1 µg/mL (≈ 3.65 µM)
MIC ([2]; MRSA / NRS 194, read-out: MIC): 0.25 µg/mL (≈ 0.912 µM)
MBC ([2]; MRSA / NRS 382): 0.125 µg/mL (≈ 0.456 µM)
MIC ([2]; MRSA / NRS 382): 0.125 µg/mL (≈ 0.456 µM)
MBC ([2]; MRSA / NRS 383): 0.125 µg/mL (≈ 0.456 µM)
MIC ([2]; MRSA / NRS 383): 0.125 µg/mL (≈ 0.456 µM)
MBC ([2]; MRSA / NRS 384): 0.125 µg/mL (≈ 0.456 µM)
MIC ([2]; MRSA / NRS 384): 0.125 µg/mL (≈ 0.456 µM)
MBC ([2]; MRSA / NRS 385, NRS 385, read-out: MBC): 1 µg/mL (≈ 3.65 µM)
MIC ([2]; MRSA / NRS 385, NRS 385, read-out: MIC): 0.5 µg/mL (≈ 1.82 µM)
MBC ([2]; MRSA / NRS 386): 1 µg/mL (≈ 3.65 µM)
MIC ([2]; MRSA / NRS 386): 0.125 µg/mL (≈ 0.456 µM)
MBC ([2]; MRSA / NRS 387): 0.25 µg/mL (≈ 0.912 µM)
MIC ([2]; MRSA / NRS 387): 0.125 µg/mL (≈ 0.456 µM)
MBC ([2]; MRSA / NRS 483): 0.5 µg/mL (≈ 1.82 µM)
MIC ([2]; MRSA / NRS 483): 0.125 µg/mL (≈ 0.456 µM)
MBC ([2]; MRSA / NRS 484, NRS 484, read-out: MBC): 0.25 µg/mL (≈ 0.912 µM)
MIC ([2]; MRSA / NRS 484, NRS 484, read-out: MIC): 0.25 µg/mL (≈ 0.912 µM)
MBC ([3]; MSSA / NRS 72, read-out: MBC): 0.5 µg/mL (≈ 1.82 µM)
MIC ([3]; MSSA / NRS 72, read-out: MIC): 0.25 µg/mL (≈ 0.912 µM)
MBC ([3]; MSSA / NRS 77, read-out: MBC): 1 µg/mL (≈ 3.65 µM)
MIC ([3]; MSSA / NRS 77, read-out: MIC): 0.25 µg/mL (≈ 0.912 µM)
MBC ([3]; MSSA / NRS 846): > 64 µg/mL
MIC ([3]; MSSA / NRS 846): 0.125 µg/mL (≈ 0.456 µM)
MBC ([3]; MSSA / NRS 860, read-out: MBC): 0.25 µg/mL (≈ 0.912 µM)
MIC ([3]; MSSA / NRS 860, read-out: MIC): 0.25 µg/mL (≈ 0.912 µM)
MBC ([4]; NRS 1 / VISA): 0.125 µg/mL (≈ 0.456 µM)
MIC ([4]; NRS 1 / VISA): 0.125 µg/mL (≈ 0.456 µM)
MBC ([4]; NRS 37 / VISA): 0.125 µg/mL (≈ 0.456 µM)
MIC ([4]; NRS 37 / VISA): 0.125 µg/mL (≈ 0.456 µM)
MBC (S. epidermidis NRS 101): 0.5 µg/mL (≈ 1.82 µM)
MIC (S. epidermidis NRS 101): 0.5 µg/mL (≈ 1.82 µM)
MBC [5]: 0.5 µg/mL (≈ 1.82 µM)
MIC [5]: 0.5 µg/mL (≈ 1.82 µM)
MBC [6]: 1 µg/mL (≈ 3.65 µM)
MIC [6]: 0.5 µg/mL (≈ 1.82 µM)
MIC90 [7]: 0.25 µg/mL (≈ 0.912 µM)
MBC (MRSA USA300 [8]; read-out: MBC): 0.5 µM (≈ 0.137 µg/mL)
MIC (MRSA USA300 [8]; read-out: MIC): < 0.5 µM
MBC [9]: 1 µM (≈ 0.274 µg/mL)
MIC ([9]; read-out: MIC): 0.5 µM (≈ 0.137 µg/mL)
mice survival compared to that of control (MRSA USA200): 60%
mice survival (MRSA USA300 [10]): 60%
